The test system of one data set is MRSA strain NRS382. In words: Control of systemic MRSA infection in a murine model. The format is in vivo, Staphylococcus aureus. The following applies: for Mean NRS382 Titer in the Blood: Recovered 48 hr post infection from surviving mice, same doses.
Data set [1] concerns S. aureus strain NRS119 (SA LinR #12; linezolid resistant). In words: Plate lysis assay (FIG. 3). The format is cell-based. The settings on record: lawn on TSA plates, observed over days. As for the experimental part:
Purified proteins for each construct were diluted in sterile nickel column elution buffer, and 6 μL of lysostaphin (11 μg) or the constructs (0.2 nmoles or ˜11 μg for the repaired construct 2638A 1-180Mut-486) was spotted onto a freshly spread lawn of S. aureus strain NRS119 (SA LinR #12; linezolid resistant) growing cells that had air dried for 30 min on tryptic soy agar (TSA) plates. L=[…] Lysostaphin (Sigma); Spot 1=11 μg; all other constructs are 0.2 nmoles (˜11 μg for the repaired construct 2638A 1-180Mut-486) […]. The spotted plates were air dried for 10 min in a laminar flow hood and incubated overnight in a 37° C. environment. Scoring of the cleared spots occurred within 20 h of plating the cells.
The Plate Lysis assay results (FIG. 3) agree with the turbidity reduction assay. Each of the M23 peptidase dependent or SH3b-truncating constructs showing weak activity on S. aureus strain Newman strain. In addition to the Plate Lysis results in FIG. 3, we have also examined numerous strains with reduced but real lytic activity (Table 1). However, the plate lysis results with the 2638A endolysin constructs are extremely novel in appearance. Plate lysis results are routinely visualized as a discrete cleared spot on a lawn of bacteria after a single overnight of culture. […]

The test system of data set [2] is S. aureus strain Newman. In words: Zymogram analysis. The format is cell-based. The settings on record: 5 μg loaded; SDS treated S. aureus Newman embedded in gel; FIG. 1C. An excerpt: Zymograms are not usually interpreted quantitatively (especially since these were loaded with μg equivalents and not molar equivalents of enzyme) but rather are used to indicate that the minor contaminating bands in the preparations are not contributing to the activity of the preparation. There was virtually no activity from any of the minor (non-shadow) bands in the zymogram assay after extended periods. However, the presence of nearly equal amounts of the active shadow band (from stained SDS gel) in many preparations negated the ability to quantify the activity from either the isolated amidase domain (2638A 139-411; 2638A 139-486) or the full length construct.

Data set [3] concerns S. aureus strain Newman. In words: Turbidity reduction assay. Type of data set: cell-based. The following applies: 0.5 μM protein; live S. aureus Newman; Mn2+, Mg2+, Ca2+ 1 mM; FIG. 3. The method, then: The turbidity assay measures the drop in optical density (OD) resulting from lysis of the target bacteria with the phage endolysin-derived protein. Mid log phase (OD600 nm of 0.4-0.6) target cells were grown in Brain Heart Infusion (Becton Dickenson, Franklin Lakes, N.J.) and concentrated in lysing buffer A (LBA; 50 mM ammonium acetate, 10 mM CaCl2, 1 mM DTT at pH 6.2) to an OD600 nm of ˜2.0. The turbidity reduction assays were performed with identical molar amounts of proteins and S. aureus strain Newman with the addition of the bivalent metal cations Mn^2+, Mg^2+, and Ca^2+ at a concentration of 1 mM. The turbidity reduction assay contained 0.5 μM protein (5.7 μg of full length repaired construct: 2638A 1-180Mut-486 in 200 μl assay) unless otherwise noted. Lane 1, 2638A 1-486 (5.7 μg total protein in 200 μl assay); Lane 2, 2638A 1-196; Lane 3, 2638A 1-220; Lane 4, 2638A 1-244; Lane 5, 2638A 1-220::355-486; Lane 6, 2638A 1-411; Lane 7, 2638A 139-411; Lane 8, 2638A 139-486; Lane 9, 2638A 180-486; Lane 10, 2638A 1-180Mut-486. Mixing reactions between the repaired full length construct 2638A 1-180Mut-486 (R) and the engineered amidase-SH3b construct 2638A 180-486 (A) were performed in the following ratios Lane 11, R:A::1:1, 1 μM; Lane 12, R:A::1:1, 0.5 μM; Lane 13, R:A::1:3, 0.5 μM; and Lane 14, R:A::3:1, 0.5 μM. Optical Density measurements are taken at regular intervals. If the lysin can digest the cell wall, lysis will occur with a subsequent reduction in OD. Changes in the OD600 nm in the control sample (cells alone) were subtracted from samples containing both cells and lysin, before calculating the specific activity. Specific Activity=ΔOD600 nm/μM/min.

Where [4] appears, read: 0 hours, Balb/c mice, I.P. 4×10^7 CFU, treated 30 min post infection: 2638A 200 μg/mouse I.P., Vancomycin 375 μg/mouse s.c., Oxacillin 1250 μg/mouse s.c.

Turning to `Cc1onc(-c2ccccc2)c1C(=O)N[C@@H]1C(=O)N2[C@@H]1SC(C)(C)[C@@H]2C(=O)O` [Oxacillin], the “% Survival” value in the data set with MRSA strain NRS382 (setting [4]) is on record as 100%; in the data set on MRSA strain NRS382 (4 hours, same model and doses), 100%; in the data set on MRSA strain NRS382 (8 hours, same model and doses), 100%; in the data set with MRSA strain NRS382 (12 hours, same model and doses) it was 100%; in the data set on MRSA strain NRS382 (16 hours, same model and doses), 100%; in the data set with MRSA strain NRS382 (20 hours, same model and doses) it was 40%. The “% Survival” value is recorded as 40% with MRSA strain NRS382 (24 hours, same model and doses); 30% with MRSA strain NRS382 (28 hours, same model and doses); 30% in the data set on MRSA strain NRS382 (32 hours, same model and doses); 30% in the data set with MRSA strain NRS382 (36 hours, same model and doses); 30% with MRSA strain NRS382 (40 hours, same model and doses); 30% with MRSA strain NRS382 (44 hours, same model and doses). The “Mean NRS382 Titer in the Blood” value with MRSA strain NRS382 is on record as 0.9 ± 1.6 × 10^3 CFU/ml. Besides, in the data set with MRSA strain NRS382 (after 16 to 20 hours, same model and doses), the survival rate result is reported as “less than 40%”. The average septicemia score entry with MRSA strain NRS382 (at 20 hours post infection, maintained until the end, score 0-5 per Table 4) is listed as “approximately 4”.
Consider `CN[C@H](CC(C)C)C(=O)N[C@H]1C(=O)N[C@@H](CC(N)=O)C(=O)N[C@H]2C(=O)N[C@H]3C(=O)N[C@H](C(=O)N[C@H](C(=O)O)c4cc(O)cc(O)c4-c4cc3ccc4O)[C@H](O)c3ccc(c(Cl)c3)Oc3cc2cc(c3O[C@@H]2O[C@H](CO)[C@@H](O)[C@H](O)[C@H]2O[C@H]2C[C@](C)(N)[C@H](O)[C@H](C)O2)Oc2ccc(cc2Cl)[C@H]1O` [Vancomycin], for which the “% Survival” value in the data set on MRSA strain NRS382 (setting [4]) is on record as 100%; in the data set with MRSA strain NRS382 (4 hours, same model and doses), 100%; in the data set on MRSA strain NRS382 (8 hours, same model and doses), 100%; in the data set on MRSA strain NRS382 (12 hours, same model and doses) it was 100%; in the data set with MRSA strain NRS382 (16 hours, same model and doses), 100%; in the data set on MRSA strain NRS382 (20 hours, same model and doses), 100%. The “% Survival” value in the data set on MRSA strain NRS382 (24 hours, same model and doses) stood at 100%; with MRSA strain NRS382 (28 hours, same model and doses), 100%; with MRSA strain NRS382 (32 hours, same model and doses), 100%; in the data set with MRSA strain NRS382 (36 hours, same model and doses), 100%; in the data set with MRSA strain NRS382 (40 hours, same model and doses), 100%; in the data set on MRSA strain NRS382 (44 hours, same model and doses), 100%. Besides, in the data set on MRSA strain NRS382 (48 hours (end of the experiment), same model and doses), the “% Survival” value came out at 100%. For the same molecule, in the data set on MRSA strain NRS382 (48 hours, score 0-5 per Table 4), the “septicemia score at the end of the experiment” value was determined as 0. Besides, in the data set with MRSA strain NRS382, the “Mean NRS382 Titer in the Blood” value is given as 1.8 ± 3.3 × 10^1 CFU/ml.
For the molecule “Lysostaphin: Lysostaphin (Sigma), peptidoglycan hydrolase control in plate lysis [reference compound]”, the “appearance and persistence of the cleared zone in plate lysis” value in data set [1] is reported as “cleared zone remains that way for days or weeks”.

B1: 2638A 139-486: truncated endolysin with full length amidase and SH3b domains, SEQ ID NO:5 (protein)
chain: MRPKDAKKDEKSQVCSGLAMEKYDITNLNAKQDKSKNGSVKELKHIYSNHIKGNKITAPKPSIQGVVIHNDYGSMTPSQYLPWLYARENNGTHVNGWASVYANRNEVLWYHPTDYVEWHCGNQWANANLIGFEVCESYPGRISDKLFLENEEATLKVAADVMKSYGLPVNRNTVRLHNEFFGTSCPHRSWDLHVGKGEPYTTTNINKMKDYFIKRIKHYYDGGKLEVSKAATIKQSDVKQEVKKQEAKQIVKATDWKQNKDGIWYKAEHASFTVTAPEGIITRYKGPWTGHPQAGVLQKGQTIKYDEVQKFDGHVWVSWETFEGETVYMPVRTWDAKTGKVGKLWGEIKLEHHHHHH
modifications: Phage 2638a
Consider B1, for which, in the data set on S. aureus strain Newman [2], the “staphylolytic activity (zones of clearing) in the zymogram” value is “active”. The “activity in the turbidity reduction assay” value with S. aureus strain Newman [3] is reported as “appreciable activity”.

B2: 2638A 1-180Mut-486: repaired full length construct, codon 180 TTG silently mutated to CTC, SEQ ID NO:4 (protein)
chain: MLTAIDYLTKKGWKISSDPRTYDGYPKNYGYRNYHENGINYDEFCGGYHRAFDVYSNETNDVPAVTSGTVIEANDYGNFGGTFVIRDANDNDWIYGHLQRGSMRFVVGDKVNQGDIIGLQGNSNYYDNPMSVHLHLQLRPKDAKKDEKSQVCSGLAMEKYDITNLNAKQDKSKNGSVKELKHIYSNHIKGNKITAPKPSIQGVVIHNDYGSMTPSQYLPWLYARENNGTHVNGWASVYANRNEVLWYHPTDYVEWHCGNQWANANLIGFEVCESYPGRISDKLFLENEEATLKVAADVMKSYGLPVNRNTVRLHNEFFGTSCPHRSWDLHVGKGEPYTTTNINKMKDYFIKRIKHYYDGGKLEVSKAATIKQSDVKQEVKKQEAKQIVKATDWKQNKDGIWYKAEHASFTVTAPEGIITRYKGPWTGHPQAGVLQKGQTIKYDEVQKFDGHVWVSWETFEGETVYMPVRTWDAKTGKVGKLWGEIKLEHHHHHH
modifications: Mutated Phage 2638a
For the molecule B2, the “activity in the turbidity reduction assay” value in the data set on S. aureus strain Newman [3] was “appreciable activity”.

B3: 2638A 180-486: engineered amidase-SH3b construct initiated at codon 180, SEQ ID NO:6 (protein)
chain: MKHIYSNHIKGNKITAPKPSIQGVVIHNDYGSMTPSQYLPWLYARENNGTHVNGWASVYANRNEVLWYHPTDYVEWHCGNQWANANLIGFEVCESYPGRISDKLFLENEEATLKVAADVMKSYGLPVNRNTVRLHNEFFGTSCPHRSWDLHVGKGEPYTTTNINKMKDYFIKRIKHYYDGGKLEVSKAATIKQSDVKQEVKKQEAKQIVKATDWKQNKDGIWYKAEHASFTVTAPEGIITRYKGPWTGHPQAGVLQKGQTIKYDEVQKFDGHVWVSWETFEGETVYMPVRTWDAKTGKVGKLWGEIKLEHHHHHH
modifications: Phage 2638a
With B3, in the data set on S. aureus strain Newman [3], the “activity in the turbidity reduction assay” value was “appreciable activity”.

(Values after US9206411B2, “Staphylococcal Phage2638A endolysin amidase domain is lytic for Staphylococcus aureus” (priority 2012, dated 2015).)
